Assay results as given in patent US5321030A, “Creatine analogs having antiviral activity” (priority 1991, dated 1994).
pEC50: −log10 of the molar value. In brackets after ≈: the same amount, converted by molar mass. Read-outs that look alike come from different tables or passages of the source.

Columns and labels:
[1] = tested on: Herpes Simplex Virus, Type 1, strain BW10168 (TK-); assay: microbe, parasite or virus in culture; assay type: cell-based; design: TI50 (CD50 ÷ ED50): unit not given beside the values; details: for Average CPE: virus controls 4.0
in vitro = details: monkey, vero cells
[2] = tested on: herpes simplex virus type 2 (HSV-2), strain E194; assay: HSV-2 vaginitis in mice; assay type: in vivo, Swiss Webster female mice; details: for Mean Day to Death: virus infected
in vivo = assay type: in vivo; details: for survival: mouse, in vivo, read-out: Survivors/Total (%); for Weight Change: uninfected, combined animal weights day 0 to day 15
HSV-1 = assay: Cytopathic effect (CPE) assay, HSV-1
[3] = tested on: Pseudorabies virus, Aujeszky strain; assay type: cell-based; details: similar assay
HSV-2 = assay: Cytopathic effect (CPE) assay, HSV-2; details: Human alphaherpesvirus 2, Vero, read-out: concentration required to inhibit cytopathogenicity by 60% or 70%

## Nc1nc2c(ncn2COCCO)c(=O)[nH]1 [acyclovir]
[1]; Acyclovir 1.0 μg/ml
  Average CPE: 4.0
[1]; Acyclovir 3.2 μg/ml
  Average CPE: 3.2
[1]; Acyclovir 10 μg/ml
  Average CPE: 1.5
[1]; Acyclovir 32 μg/ml
  Average CPE: 0.3
[1]; Acyclovir 100 μg/ml
  Average CPE: 0.5
[1]; Acyclovir 316 μg/ml
  Average CPE: 0.2
[1]; Acyclovir 1000 μg/ml
  Average CPE: 0
[1]; Human alphaherpesvirus 1, Vero, read-out: ED50, Vero cells, Table 8
  EC50: 10.6 µg/mL (≈ 47.1 µM)
[1]; Vero cells, Table 8
  TI50 (CD50 ÷ ED50): > 94
In vitro
  CC50: > 1000 µg/mL
[2]; 25 mg/kg/day gavage, Grand Ave. (Days 3-14)
  average lesion score: 1.5 ± 0.6
[2]; 25 mg/kg/day gavage, day 3
  average lesion score: 0.1 ± 0.2
[2]; 25 mg/kg/day gavage, day 5
  average lesion score: 1.3 ± 1.5
[2]; 25 mg/kg/day gavage, day 6
  average lesion score: 1.3 ± 1.3
[2]; 25 mg/kg/day gavage, day 7
  average lesion score: 1.7 ± 1.6
[2]; 25 mg/kg/day gavage, day 8
  average lesion score: 2.1 ± 1.5
[2]; 25 mg/kg/day gavage, day 9
  average lesion score: 2.1 ± 1.4
[2]; 25 mg/kg/day gavage, day 10
  average lesion score: 2.0 ± 1.2
[2]; 25 mg/kg/day gavage, day 11
  average lesion score: 1.9 ± 1.3
[2]; 25 mg/kg/day gavage, day 12
  average lesion score: 1.9 ± 1.4
[2]; 25 mg/kg/day gavage, day 13
  average lesion score: 1.8 ± 1.5
[2]; 25 mg/kg/day gavage, day 14
  average lesion score: 1.8 ± 1.5
[2]; 50 mg/kg/day gavage, Grand Ave. (Days 3-14)
  average lesion score: 0.8 ± 0.3
[2]; 50 mg/kg/day gavage, day 3
  average lesion score: 0.0 ± 0.0
[2]; 50 mg/kg/day gavage, day 4
  average lesion score: 0.2 ± 0.3
[2]; 50 mg/kg/day gavage, day 5
  average lesion score: 1.0 ± 1.8
[2]; 50 mg/kg/day gavage, day 6
  average lesion score: 0.5 ± 0.7
[2]; 50 mg/kg/day gavage, day 7
  average lesion score: 0.8 ± 1.2
[2]; 50 mg/kg/day gavage, day 8
  average lesion score: 0.8 ± 0.9
[2]; 50 mg/kg/day gavage, day 10
  average lesion score: 0.9 ± 1.2
[2]; 50 mg/kg/day gavage, day 11
  average lesion score: 0.9 ± 1.2
[2]; 50 mg/kg/day gavage, day 12
  average lesion score: 0.9 ± 1.2
[2]; 50 mg/kg/day gavage, day 14
  average lesion score: 1.0 ± 1.3
[2]; 100 mg/kg/day gavage, Grand Ave. (Days 3-14)
  average lesion score: 0.7 ± 0.4
[2]; 100 mg/kg/day gavage, day 3
  average lesion score: 0.1 ± 0.2
[2]; 100 mg/kg/day gavage, day 4
  average lesion score: 0.2 ± 0.3
[2]; 100 mg/kg/day gavage, day 5
  average lesion score: 0.4 ± 0.4
[2]; 100 mg/kg/day gavage, day 6
  average lesion score: 0.5 ± 0.5
[2]; 100 mg/kg/day gavage, day 7
  average lesion score: 0.6 ± 0.7
[2]; 100 mg/kg/day gavage, day 8
  average lesion score: 0.8 ± 0.9
[2]; 100 mg/kg/day gavage, day 9
  average lesion score: 0.9 ± 0.9
[2]; 100 mg/kg/day gavage, day 10
  average lesion score: 1.4 ± 1.2
[2]; 100 mg/kg/day gavage, day 11
  average lesion score: 1.0 ± 1.3
[2]; 100 mg/kg/day gavage, day 12
  average lesion score: 1.1 ± 1.3
[2]; 100 mg/kg/day gavage, day 13
  average lesion score: 0.8 ± 0.9
[2]; 100 mg/kg/day gavage, day 14
  average lesion score: 0.7 ± 0.9
[2]; 200 mg/kg/day gavage, Grand Ave. (Days 3-14)
  average lesion score: 0.6 ± 0.3
[2]; 200 mg/kg/day gavage, day 3
  average lesion score: 0.1 ± 0.2
[2]; 200 mg/kg/day gavage, day 4
  average lesion score: 0.1 ± 0.2
[2]; 200 mg/kg/day gavage, day 5
  average lesion score: 0.4 ± 0.5
[2]; 200 mg/kg/day gavage, day 6
  average lesion score: 0.2 ± 0.3
[2]; 200 mg/kg/day gavage, day 7
  average lesion score: 0.4 ± 0.5
[2]; 200 mg/kg/day gavage, day 8
  average lesion score: 0.7 ± 0.6
[2]; 200 mg/kg/day gavage, day 9
  average lesion score: 0.9 ± 0.7
[2]; 200 mg/kg/day gavage, day 10
  average lesion score: 1.0 ± 0.6
[2]; 200 mg/kg/day gavage, day 11
  average lesion score: 0.7 ± 0.7
[2]; 200 mg/kg/day gavage, day 12
  average lesion score: 0.7 ± 0.7
[2]; 200 mg/kg/day gavage, day 13
  average lesion score: 0.8 ± 0.7
[2]; 200 mg/kg/day gavage, day 14
  average lesion score: 0.7 ± 0.7
[2]; 5% cream topical
  activity in vaginitis model: very effective
[2]; acyclovir 5% cream topical, Grand Ave. (Days 3-14)
  average lesion score: 0.3 ± 0.2
[2]; acyclovir 5% cream topical, day 3
  average lesion score: 0.1 ± 0.1
[2]; acyclovir 5% cream topical, day 4
  average lesion score: 0.1 ± 0.1
[2]; acyclovir 5% cream topical, day 5
  average lesion score: 0.1 ± 0.2
[2]; acyclovir 5% cream topical, day 6
  average lesion score: 0.2 ± 0.2
[2]; acyclovir 5% cream topical, day 7
  average lesion score: 0.2 ± 0.2
[2]; acyclovir 5% cream topical, day 8
  average lesion score: 0.2 ± 0.3
[2]; acyclovir 5% cream topical, day 9
  average lesion score: 0.2 ± 0.2
[2]; acyclovir 5% cream topical, day 10
  average lesion score: 0.6 ± 0.8
[2]; acyclovir 5% cream topical, day 11
  average lesion score: 0.5 ± 0.7
[2]; acyclovir 5% cream topical, day 12
  average lesion score: 0.3 ± 0.6
[2]; acyclovir 5% cream topical, day 13
  average lesion score: 0.3 ± 0.6
[2]; acyclovir 5% cream topical, day 14
  average lesion score: 0.3 ± 0.6
[2]; ACV 25 mg/kg
  Mean Day to Death: 10.4 ± 2.5
[2]; ACV 50 mg/kg
  Mean Day to Death: 11.3 ± 2.1
[2]; ACV 100 mg/kg
  Mean Day to Death: 12.0 ± 1.4
[2]; ACV 200 mg/kg
  Mean Day to Death: 11.3 ± 2.5
In vivo; 25 mg/kg
  survival: 100%
In vivo; 50 mg/kg
  survival: 100%
In vivo; 100 mg/kg
  survival: 100%
In vivo; 200 mg/kg
  survival: 100%
In vivo; ACV 25 mg/kg
  Weight Change: 2.8 g
In vivo; ACV 50 mg/kg
  Weight Change: 4.0 g
In vivo; ACV 100 mg/kg
  Weight Change: 3.5 g
In vivo; ACV 200 mg/kg
  Weight Change: 4.8 g
HSV-1; Human alphaherpesvirus 1, Vero, read-out: dose required to inhibit cytopathogenicity by 65%
  EC65: 0.97 µM
HSV-1; Human alphaherpesvirus 1, read-out: in vitro ED50
  pEC50: 5.15
[3]
  effect against Pseudorabies virus: ineffective
HSV-2
  EC (60 or 70): 1.95 µM
